Measurements as given in patent US20230391845A1, “GLP-1, GIP AND GLUCAGON RECEPTOR TRIPLE AGONISTS” (priority 2020, published 2023).
*1 amine or outer side, *2 acyl side, *3 side chain or, on linkers, in order; H or OH if unused. Where a SMILES comes first, the peptide text is derived from it. Side-chain parts run from the residue outwards. [ ]: non-standard residue; d: D form. The star is where a group is joined. C20 diacid = O=C(O)CCCCCCCCCCCCCCCCCCC(=O)*; γGlu = O=C(O)[C@H](CCC(=O)[*:2])N[*:1]; εLys = N[C@@H](CCCCN[*:1])C(=O)[*:2]; AEEA = NCCOCCOCC(=O)O; Aib = CC(C)(N)C(=O)O

Tests used:
[1] = molecular target: T1, human GLP-1 receptor (Homo sapiens, UniProt P43220); test: In vitro functional potency (CRE luciferase; whole cells), human GLP-1R; format: cell-based; settings: BHK CRE luc2P hGLP-1R whole cells; Table 2; read-out: hGLP-1R CRE Luc EC50
T1 construct: expressed in transfected cells; host or cells: BHK cells (parent line BHKTS13) containing CRE luciferase
T1 sequence (P43220 24-463): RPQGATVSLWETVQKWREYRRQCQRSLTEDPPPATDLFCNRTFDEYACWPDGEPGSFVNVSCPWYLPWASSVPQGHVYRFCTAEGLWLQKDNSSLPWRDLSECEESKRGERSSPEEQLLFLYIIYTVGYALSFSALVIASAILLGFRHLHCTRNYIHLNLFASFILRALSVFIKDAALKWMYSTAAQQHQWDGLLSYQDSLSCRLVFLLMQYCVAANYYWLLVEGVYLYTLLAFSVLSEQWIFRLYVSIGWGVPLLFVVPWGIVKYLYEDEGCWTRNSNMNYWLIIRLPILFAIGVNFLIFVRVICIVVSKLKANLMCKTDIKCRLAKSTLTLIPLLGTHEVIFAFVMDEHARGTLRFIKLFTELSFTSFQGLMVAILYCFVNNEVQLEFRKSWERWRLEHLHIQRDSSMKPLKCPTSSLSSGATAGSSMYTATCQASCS
Protocol: The purpose of this example is to test the functional activity, or potency, of the compounds in vitro at the human and mouse GLP-1, GIP, and Gcg receptors. The in vitro functional potency is the measure of target receptor activation in a whole cell assay.
In vitro functional potency was determined by measuring the response of the target receptor in a reporter gene assay in individual cell lines. The assay was performed in stably transfected BHK cell lines that expresses one of the following G-protein coupled receptors: human GLP-1 receptor, human GIP receptor, human Gcg receptor, mouse GLP-1 receptor, mouse GIP receptor, or mouse Gcg receptor; and where each cell line contains the DNA for the cAMP response element (CRE) coupled to a promoter and the gene for firefly luciferase (CRE luciferase). When the respective receptor is activated, it results in the production of cAMP, which in turn results in expression of the luciferase protein. When assay incubation is completed, luciferase substrate (luciferin) is added resulting in the enzymatic conversion of luciferin to oxyluciferin and producing bioluminescence. The luminescence is measured as the readout for the assay.
The cells lines used in these assays were BHK cells with BHKTS13 as a parent cell line. The cell lines were derived from a clone containing the CRE luciferase element and were established by further transfection with the respective receptor to obtain the relevant cell line.
The cells were cultured at 37° C. with 5% CO2 in Cell Culture Medium. They were aliquoted and stored in liquid nitrogen. The cells were kept in continuous culture and were seeded out the day before each assay.
GLP-1R and GcgR Cell Culture Medium consisted of DMEM medium with 10% FBS, 500 µg/mL G418, and 300 µg/mL hygromycin. GIPR Cell Culture Medium consisted of DMEM medium with 10% FBS, 400 µg/mL G418, and 300 µg/mL hygromycin. Assay Buffer consisted of DMEM w/o phenol red, 10 mM Hepes, 1× Glutamax, 1% ovalbumin, and 0.1% Pluronic F-68.
• 1) Cells were plated at 5000 cells/well and incubated overnight in the assay plate. • 2) Cells were washed once in DPBS. • 3) Stocks of the test compounds and reference compounds in concentrations ranging from 100-300 pM were diluted 1:150 in Assay Buffer.
The data from the microtiter plate reader was first regressed in an Excel in order to calculate the x-axis, log scale concentrations based on the individual test compound's stock concentration and the dilutions of the assay. […] The software performs a non-linear regression (log(agonist) vs response). A minimum of two replicates was measured for each sample. The reported values are averages of the replicates.

[2] = molecular target: T2, human GIP receptor (Homo sapiens, UniProt P48546); test: In vitro functional potency (CRE luciferase; whole cells), human GIPR; format: cell-based; settings: BHK CRE luc2P hGIPR whole cells; Table 2; read-out: hGIPR CRE Luc EC50
T2 construct: expressed in transfected cells; host or cells: BHK cells (parent line BHKTS13) containing CRE luciferase
T2 sequence (P48546 22-466): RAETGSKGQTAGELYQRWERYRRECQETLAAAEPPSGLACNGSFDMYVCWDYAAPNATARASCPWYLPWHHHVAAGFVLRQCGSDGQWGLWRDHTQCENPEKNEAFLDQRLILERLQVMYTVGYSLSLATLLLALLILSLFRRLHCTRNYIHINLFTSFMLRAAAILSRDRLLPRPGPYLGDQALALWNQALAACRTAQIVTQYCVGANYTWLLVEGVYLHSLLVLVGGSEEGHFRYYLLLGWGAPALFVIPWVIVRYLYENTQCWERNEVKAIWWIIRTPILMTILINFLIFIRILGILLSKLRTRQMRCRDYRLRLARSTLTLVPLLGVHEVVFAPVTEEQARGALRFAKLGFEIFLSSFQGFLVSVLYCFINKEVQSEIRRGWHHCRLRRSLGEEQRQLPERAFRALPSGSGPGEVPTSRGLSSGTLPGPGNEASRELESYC

SMILES | EC50 [1] [pM] | EC50 [2] [pM]
CC(C)C[C@H](NC(=O)[C@H](CC(C)C)NC(=O)[C@H](Cc1c[nH]c2ccccc12)NC(=O)[C@H](CCC(N)=O)NC(=O)[C@@H](NC(=O)[C@H](Cc1ccccc1)NC(=O)[C@H](CCC(=O)O)NC(=O)C(C)(C)NC(=O)[C@H](C)NC(=O)[C@H](C)NC(=O)[C@H](CCC(N)=O)NC(=O)[C@H](CCCCNC(=O)[C@@H](N)CCCCNC(=O)[C@@H](N)CCCCNC(=O)CC[C@H](NC(=O)CCCCCCCCCCCCCCCCCCC(=O)O)C(=O)O)NC(=O)[C@H](CCC(=O)O)NC(=O)[C@H](CC(C)C)NC(=O)[C@H](Cc1ccc(O)cc1)NC(=O)[C@H](CCCCN)NC(=O)[C@H](CO)NC(=O)[C@H](Cc1ccc(O)cc1)NC(=O)[C@H](CC(=O)O)NC(=O)[C@H](CO)NC(=O)[C@@H](NC(=O)[C@H](Cc1ccccc1)NC(=O)[C@@H](NC(=O)CNC(=O)[C@H](Cc1c[nH]cn1)NC(=O)C(C)(C)NC(=O)[C@@H](N)Cc1c[nH]cn1)[C@@H](C)O)[C@@H](C)O)C(C)C)C(=O)N[C@@H](CCC(=O)O)C(=O)NCC(=O)NCC(=O)N1CCC[C@H]1C(=O)N[C@@H](CO)C(=O)N[C@@H](CO)C(=O)NCC(=O)N[C@@H](C)C(=O)N1CCC[C@H]1C(=O)N1CCC[C@H]1C(=O)N1CCC[C@H]1C(=O)N[C@@H](CO)C(N)=O [Compound No. 36] (H-H[Aib]HGTFTSDYSKYLEK([εLys-εLys-γGlu-C20 diacid])QAA[Aib]EFVQWLLEGGPSSGAPPPS-NH2) | 1.8 | 9.3
CC[C@H](C)[C@H](NC(=O)[C@H](CO)NC(=O)[C@H](Cc1ccc(O)cc1)NC(=O)[C@H](CC(=O)O)NC(=O)[C@H](CO)NC(=O)[C@@H](NC(=O)[C@H](Cc1ccccc1)NC(=O)[C@@H](NC(=O)CNC(=O)[C@H](Cc1c[nH]cn1)NC(=O)C(C)(C)NC(=O)[C@@H](N)Cc1c[nH]cn1)[C@@H](C)O)[C@@H](C)O)C(=O)N[C@@H](CC(C)C)C(=O)N[C@@H](CC(C)C)C(=O)N[C@@H](CCC(=O)O)C(=O)N[C@@H](CCCCNC(=O)COCCOCCNC(=O)COCCOCCNC(=O)CC[C@H](NC(=O)CCCCCCCCCCCCCCCCCCC(=O)O)C(=O)O)C(=O)N[C@@H](CCC(N)=O)C(=O)N[C@@H](C)C(=O)N[C@@H](C)C(=O)NC(C)(C)C(=O)N[C@@H](CCC(=O)O)C(=O)N[C@@H](Cc1ccccc1)C(=O)N[C@H](C(=O)N[C@@H](CCC(N)=O)C(=O)N[C@@H](Cc1c[nH]c2ccccc12)C(=O)N[C@@H](CC(C)C)C(=O)N[C@@H](CC(C)C)C(=O)N[C@@H](CCC(=O)O)C(=O)NCC(=O)NCC(=O)N1CCC[C@H]1C(=O)N[C@@H](CO)C(=O)N[C@@H](CO)C(=O)NCC(=O)N[C@@H](C)C(=O)N1CCC[C@H]1C(=O)N1CCC[C@H]1C(=O)N1CCC[C@H]1C(=O)N[C@@H](CO)C(N)=O)C(C)C [Compound No. 45] (H-H[Aib]HGTFTSDYSILLEK([AEEA-AEEA-γGlu-C20 diacid])QAA[Aib]EFVQWLLEGGPSSGAPPPS-NH2; N-terminus assumed) | 2.4 | 1.9
